In US20250099448A1, “HETEROCYCLIC COMPOUNDS” (Hoffmann-La Roche Inc., priority 2022, published 2025):

Molecular target: T1, MAGL protein (Homo sapiens, UniProt Q99685)
T1 sequence (Q99685 1-303): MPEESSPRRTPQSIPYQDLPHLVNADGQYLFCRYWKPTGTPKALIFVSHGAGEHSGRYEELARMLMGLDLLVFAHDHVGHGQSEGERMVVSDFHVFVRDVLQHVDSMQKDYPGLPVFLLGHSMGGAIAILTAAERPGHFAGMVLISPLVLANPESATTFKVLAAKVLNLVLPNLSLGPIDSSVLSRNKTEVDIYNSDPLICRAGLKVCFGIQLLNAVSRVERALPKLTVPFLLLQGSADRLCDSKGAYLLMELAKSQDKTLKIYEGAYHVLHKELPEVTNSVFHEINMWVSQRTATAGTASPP
Assay: 2-AG assay: MAGL inhibitory activity by hydrolysis of 2-arachidonoylglycerol to arachidonic acid, followed by mass spectrometry
Type: biochemical
Conditions: 8 μM 2-arachidonoylglycerol, 15 min preincubation, 30 min reaction at RT, RapidFire MS readout
Procedure, shortened: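 MAGL was preincubated 15 min at RT with compound (12.5 to […], 3-fold steps) in 50 mM TRIS, 1 mM EDTA, 0.01% Tween-20, 2.5% DMSO. The reaction ran 30 min at RT with 8 μM 2-AG. Arachidonic acid was quantified by RapidFire SPE-MS/MS against a d8-arachidonic acid internal standard.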

Compound | IC50
N#Cc1[nH]nnc1-c1ccc(C2CN(C(=O)N3CC4(CC(c5nnc(C6CC6)[nH]5)C4)C3)C2)cc1 [Example 910, 4-[4-[1-[6-(5-cyclopropyl-4H-1,2,4-triazol-3-yl)-2-azaspiro[3.3]heptane-2-carbonyl]azetidin-3-yl]phenyl]-1H-triazole-5-carbonitrile] | 4.23 nM
O=C(N1CC2(CC(c3nc(C4CC4)n[nH]3)C2)C1)N1CC2(CC(C(F)(F)c3ccc(C(F)(F)F)nn3)C2)C1 [compound 446] | 1.71 nM
CS(=N)(=O)c1cccc(CC2CC3(C2)CN(C(=O)N2CC4(CC(c5nnc(C6CC6)[nH]5)C4)C2)C3)c1 (stereo not drawn) [compound 124] | 2.46 nM
O=C(N1CC2(CC(Cc3ncc(C(F)(F)F)cc3F)C2)C1)N1CC2(CC(c3ncn[nH]3)C2)C1 [compound 620] | 187 nM
O=C(N1CC2(CC(c3nnc(C4CC4)[nH]3)C2)C1)N1CC2(C1)CN(S(=O)(=O)c1ccc(F)cc1Cl)C2 [compound 107] | 3.14 nM
O=C(N1CC(C23CC(Cc4ccc(C(F)(F)F)cc4F)(C2)C3)C1)N1CC2(CC(c3nc(C4(O)CC4)n[nH]3)C2)C1 [compound 438] | 3.46 nM
O=C(N1CC(CNS(=O)(=O)c2cccc(C(F)(F)F)c2)C1)N1CC2(CC(c3nnc(C4(O)CC4)[nH]3)C2)C1 [compound 211] | 136 nM
Cn1nc(CC2CC3(C2)CN(C(=O)N2CC4(CC(c5nc(C6COC6)n[nH]5)C4)C2)C3)cc1C(F)(F)F [compound 744] | 13.6 nM
N=S(=O)(c1ccc(C2CN(C(=O)N3CC4(CC(c5nc(C6(O)CC6)n[nH]5)C4)C3)C2)cc1)C1CC1 (stereo not drawn) [compound 496] | 37 nM
O=C(N1CC2(CC(Cc3cn[nH]c3C(F)(F)F)C2)C1)N1CC2(CC(c3nc(C4CC4)n[nH]3)C2)C1 [compound 607] | 0.08 nM
O=C(N1CC(NCc2cc(Cl)cc(C(F)(F)F)c2)C1)N1CC2(CC(c3nnc(C4CC4)[nH]3)C2)C1 [compound 194] | 18.4 nM
O=C(N1CC(c2ccc(-n3cnc(C4CC4)n3)cc2)C1)N1CC2(CC(c3nnc(C4CC4)[nH]3)C2)C1 [compound 934] | 4.44 nM
Cn1nc(C(F)(F)F)cc1CC1CC2(C1)CN(C(=O)N1CC3(CC(c4nc(C5CC5)n[nH]4)C3)C1)C2 [compound 785] | 0.39 nM
O=C(N1CC2(CC(c3nnc(C4CC4)[nH]3)C2)C1)N1CC2(C1)CN(S(=O)(=O)c1ccc(F)c(C(F)(F)F)c1)C2 [compound 102] | 15 nM
O=C(N1CC2(CC(Cc3ccc(C(F)(F)F)nc3)C2)C1)N1CC2(CC(c3nnc(C4CC4)[nH]3)C2)C1 [compound 5] | 0.16 nM
O=C(N1CC(OCc2ccc(S(=O)(=O)C(F)(F)F)cc2)C1)N1CC2(CC(c3nnc(C4CC4)[nH]3)C2)C1 [compound 316] | 6.21 nM
N=[S@](=O)(c1ccc(CC2CC3(C2)CN(C(=O)N2CC4(CC(c5nnc(C6CC6)[nH]5)C4)C2)C3)cc1)C(F)(F)F (single isomer, unassigned) [compound 129] | 0.1 nM
O=C(N1CC2(CC(Cn3ncnc3C(F)(F)F)C2)C1)N1CC2(CC(c3nc(C4CC4)n[nH]3)C2)C1 [compound 444] | 3.25 nM
CS(=O)(=O)c1cc(C(F)(F)F)ccc1CC1CC2(C1)CN(C(=O)N1CC3(CC(c4nnc(C5(O)CC5)[nH]4)C3)C1)C2 [compound 40] | 0.4 nM

Compound | IC50
O=C(N1CC2(CC(Cc3ccnc(C(F)(F)F)n3)C2)C1)N1CC2(CC(c3nc(C4CC4)n[nH]3)C2)C1 [compound 402] | 0.95 nM
O=C(N1CC2(CC(c3nc(C4CC4)n[nH]3)C2)C1)N1CC2(CN(Cc3cnn(CC(F)(F)F)c3)C2)C1 [compound 568] | 408 nM
CC(C)(C)c1c[nH]c(CN2CC3(C2)CN(C(=O)N2CC4(CC(c5nc(C6CC6)n[nH]5)C4)C2)C3)n1 [compound 659] | 40.9 nM
O=C(N1CC2(CC(Cn3nccc3C(F)(F)F)C2)C1)N1CC2(CC(c3nc(C4COC4)n[nH]3)C2)C1 [compound 716] | 29.2 nM
O=C(N1CC2(CC(Cc3nc(C(F)(F)F)ns3)C2)C1)N1CC2(CC(c3nnc(C4(O)CC4)[nH]3)C2)C1 [compound 60] | 4.03 nM
O=C(N1CC2(CCC(Cc3ncc(F)cc3F)CC2)C1)N1CC2(CC(c3nnc(C4(O)CC4)[nH]3)C2)C1 [compound 143] | 14.5 nM
O=C(N1CC2(CCC(S(=O)(=O)c3cccc(C(F)(F)F)c3)CC2)C1)N1CC2(CC(c3nc(C4CC4)n[nH]3)C2)C1 [compound 435] | 3.95 nM
O=C(N1CC2(CC(Cc3ccc4[nH]nc(C(F)(F)F)c4c3)C2)C1)N1CC2(CC(c3nc(C4CC4)n[nH]3)C2)C1 [compound 994] | 0.06 nM
O=C(N1CC2(CC(Cc3cc(F)cc(C(F)(F)F)c3)C2)C1)N1CC2(CC(c3nc(C4CC(F)(F)C4)n[nH]3)C2)C1 [compound 455] | 7.1 nM
O=C(N1CC2(CCC(Cc3ccc(C(F)(F)F)cn3)CC2)C1)N1CC2(CC(c3nnc(C4CC4)[nH]3)C2)C1 [compound 48] | 0.13 nM
O=C(N1CC2(CC(c3nc(C4CC4)n[nH]3)C2)C1)N1CC2(CN(Cc3ccnn3C(F)(F)F)C2)C1 [compound 656] | 39.7 nM
O=C(N1CC(OCc2ccc(C(F)(F)F)nc2)C1)N1CC2(CC(c3nnc(C4CC4)[nH]3)C2)C1 [compound 332] | 159 nM
O=C(N1CC2(CC(Cc3ccc4c(C(F)(F)F)n[nH]c4c3)C2)C1)N1CC2(CC(c3nc(C4CC4)n[nH]3)C2)C1 [compound 989] | 0.05 nM
O=C(N1CC2(CC(Cc3ccc(C(F)(F)F)cc3F)C2)C1)N1CC2(CC(c3nc(C4COC4)n[nH]3)C2)C1 [compound 768] | 0.08 nM
O=C(N1CC2(CC(Oc3cc(C(F)(F)F)ccn3)C2)C1)N1CC2(CC(c3nc(C4CC4)n[nH]3)C2)C1 [compound 969] | 0.42 nM
N#Cc1ccc(CC2CC3(C2)CN(C(=O)N2CC4(CC(c5nc(C6CC6)n[nH]5)C4)C2)C3)cc1C(F)(F)F [compound 590] | 0.34 nM
O=C(N1CC(c2ccc(-n3cnc(C(F)(F)F)n3)cc2)C1)N1CC2(CC(c3nnc(C4CC4)[nH]3)C2)C1 [compound 930] | 0.39 nM
O=C(N1CC2(CC(c3nc(C4CC4)n[nH]3)C2)C1)N1CC2(CN(Cc3nc(C(F)(F)F)no3)C2)C1 [compound 662] | 11.9 nM
O=C(N1CC(c2ccc(-c3cc(C(F)(F)F)n[nH]3)cc2)C1)N1CC2(CC(c3nnc(C4CC4)[nH]3)C2)C1 [compound 851] | 0.23 nM

Compound | IC50
O=C(N1CCC(CNS(=O)(=O)c2ccc(OC(F)(F)F)cc2)CC1)N1CC2(CC(c3nnc(C4CC4)[nH]3)C2)C1 [compound 251] | 23.9 nM
NC(=O)[C@@H]1CC(F)(F)CCN1c1ccc(C2CN(C(=O)N3CC4(CC(c5nnc(C6CC6)[nH]5)C4)C3)C2)cc1 [Example 395, (2S)-1-[4-[1-[6-(5-cyclopropyl-4H-1,2,4-triazol-3-yl)-2-azaspiro[3.3]heptane-2-carbonyl]azetidin-3-yl]phenyl]-4,4-difluoro-piperidine-2-carboxamide] | 1.28 nM
Cn1ncc(CC2CC3(C2)CN(C(=O)N2CC4(CC(c5nc(C6CC6)n[nH]5)C4)C2)C3)c1C(F)(F)F [compound 729] | 0.09 nM
Cn1cc(CC2CC3(C2)CN(C(=O)N2CC4(CC(c5nc(C6(O)CC6)n[nH]5)C4)C2)C3)c(C(F)(F)F)n1 [compound 810] | 1.14 nM
O=C(N1CC(C23CC(c4nnc(C5CC5)o4)(C2)C3)C1)N1CC2(CC(c3nnc(C4CC4)[nH]3)C2)C1 [compound 345] | 9.15 nM
O=C(N1CC2(CC(c3nc(C4CC4)n[nH]3)C2)C1)N1CC2(CN(Cc3cnc(C(F)(F)F)o3)C2)C1 [compound 642] | 27.5 nM
O=C(N1CC2(CC(Cc3nc(C(F)(F)F)co3)C2)C1)N1CC2(CC(c3nnc(C4(O)CC4)[nH]3)C2)C1 [compound 62] | 8.06 nM
Cc1cc(C(F)F)nn1-c1ccc(C2CN(C(=O)N3CC4(CC(c5nnc(C6CC6)[nH]5)C4)C3)C2)cc1 [compound 285] | 0.37 nM
O=C(N1CC2(CCC(Cc3ccc(C(F)(F)F)cn3)CC2)C1)N1CC2(CC(c3nc(C4CC(F)(F)C4)n[nH]3)C2)C1 [compound 574] | 65.4 nM
COc1cc(COC2CCN(C(=O)N3CC4(CC(c5nc(C6CC6)n[nH]5)C4)C3)CC2)ccc1C#N [Example 904] | 159 nM
O=C(N1CC2(CC(Cc3ccc(C(F)(F)F)nn3)C2)C1)N1CC2(CC(c3nc(C4CC(F)(F)C4)n[nH]3)C2)C1 [compound 452] | 413 nM
O=C(N1CC2(CC(Cc3cc(F)cc(C(F)(F)F)c3)C2)C1)N1CC2(CC(c3nnc(C4CC4)[nH]3)C2)C1 [compound 121] | 0.01 nM
O=C(N1CC(c2cnc(N3CCC(C(F)(F)F)C3)nc2)C1)N1CC2(CC(c3nnc(C4CC4)[nH]3)C2)C1 (stereo not drawn) [compound 264] | 2.27 nM
O=C(N1CC(c2cnc(C3(C(F)(F)F)CC3)cn2)C1)N1CC2(CC(c3nnc(C4CC4)[nH]3)C2)C1 [compound 233] | 13.8 nM
O=C(N1CC2(CC(c3nnc(C4CC4)[nH]3)C2)C1)N1CC2(CN(Cc3cnn4ccccc34)C2)C1 [compound 887] | 5.98 nM
O=C(N1CC2(CC(Cc3ncc(Cl)cc3F)C2)C1)N1CC2(CC(c3nc(C4(O)CC4)n[nH]3)C2)C1 [compound 676] | 2.94 nM
O=C(N1CC2(CC(Cc3noc(C(F)(F)F)n3)C2)C1)N1CC2(CC(c3nc(C4CC4)n[nH]3)C2)C1 [compound 794] | 1.03 nM
O=C(N1CC2(CC(c3nnc(C4CC4)[nH]3)C2)C1)N1CC2(CN(Cc3ccc(F)cc3C(F)(F)F)C2)C1 [compound 169] | 0.62 nM
O=C(N1CC2(CC(OCC3(C(F)(F)F)CC3)C2)C1)N1CC2(CC(c3nnc(C4(O)CC4)[nH]3)C2)C1 [compound 69] | 21.3 nM
